Activity calls are given as the source filed them. The rule behind the calls is not given here.
Experiments:
[1] = Drug metabolism in rat liver microsomes assessed as formation of (S)-N-(5,6-Dimethoxybenzo[d]thiazol-2-yl)-1-((4-(hydroxymethyl) phenyl) sulfonyl)pyrrolidine-2-carboxamide in presence of NADPH generating system by LC-MS/MS analysis; assay type: ADME, Microsome
[2] = Drug metabolism in rat liver microsomes assessed as formation of (R)-N-(5,6-Dimethoxybenzo[d]thiazol-2-yl)-1-((4-(hydroxymethyl) phenyl) sulfonyl)pyrrolidine-2-carboxamide in presence of NADPH generating system by LC-MS/MS analysis; assay type: ADME, Microsome
Zika virus [3] = assay: Antiviral activity against Zika virus Uganda infected in human A549 cells assessed as reduction in viral RNA at 5 uM measured after 24 to 72 hrs post infection by RT-qPCR analysis; assay type: functional, organism-based
Zika virus [4] = assay: Antiviral activity against Zika virus infected in African green monkey Vero cells assessed as suppression of viral replication at 10 uM pre-incubated with cells for 1 hr before viral infection and measured after 4 days by RT-qPCR analysis; assay type: functional, organism-based
[5] = Drug metabolism in rat liver microsomes assessed as formation of (R)-N-(5,6-Dihydroxybenzo[d]thiazol-2-yl)-1-tosylpyrrolidine-2-carboxamide in presence of NADPH generating system by LC-MS/MS analysis; assay type: ADME, Microsome
dengue virus type 2 = assay: Antiviral activity against Dengue virus 2 infected in African green monkey Vero cells assessed as suppression of viral replication at 10 uM pre-incubated with cells for 1 hr before viral infection and measured after 4 days by RT-qPCR analysis; assay type: functional, organism-based
A549 = assay: Cytotoxicity against human A549 cells assessed as reduction in cell viability up to 5 uM by Presto blue cell viability reagent based assay
Zika virus [6] = assay: Antiviral activity against Zika virus French Polynesia infected in human A549 cells assessed as reduction in viral RNA at 5 uM measured after 24 to 72 hrs post infection by RT-qPCR analysis; assay type: functional, organism-based
[7] = Permeability in human C2BBe1 cells at 10 uM incubated for 3 hrs by LC-MS analysis relative to control; assay type: ADME, cell-based; conditions: c2bbe1, 3 h
[8] = Drug metabolism in rat liver microsomes assessed as formation of (S)-1-Benzoyl-N-(5,6-dihydroxybenzo[d]thiazol-2-yl)pyrrolidine-2-carboxamide in presence of NADPH generating system by LC-MS/MS analysis; assay type: ADME, Microsome
Nonstructural protein 3 [9] = molecular target: T1, Nonstructural protein 3 (Zika virus, UniProt A0A024AXB9); assay: Inhibition of Zika virus NS2B/NS3 protease
[10] = (§1) Inhibition of N-terminal hexa-histidine tagged Dengue virus 2 NS2B/NS3 protease I30A/L31A/T118C mutant expressed in Escherichia coli BL21-Gold (DE3) using fluorogenic AMC-substituted peptide boc-GRR-7-amino-4-methylcoumarin measured every 30 secs for 10 mins by fluorometric assay; parameters: species or system dengue virus type 2
[11] = as §1, with “(DE3) in presence of N-benzylmaleimide” for “(DE3)”; parameters: species or system dengue virus type 2
[12] = (§2) Inhibition of N-terminal hexa-histidine tagged Dengue virus 2 NS2B/NS3 protease I30A/L31A mutant expressed in Escherichia coli BL21-Gold (DE3) using fluorogenic AMC-substituted peptide boc-GRR-7-amino-4-methylcoumarin measured every 30 secs for 10 mins by fluorometric assay; parameters: species or system dengue virus type 2
[13] = as §1, with “I30A/L31A/T120C” for “I30A/L31A/T118C”, “(DE3) in presence of N-ethylmaleimide” for “(DE3)”; parameters: species or system dengue virus type 2
[14] = as §1, with “I30A/L31A/T122C” for “I30A/L31A/T118C”, “(DE3) in presence of N-ethylmaleimide” for “(DE3)”; parameters: species or system dengue virus type 2
[15] = (§3) Inhibition of N-terminal hexa-histidine tagged Dengue virus 2 NS2B/NS3 protease I30A/L31A/T120C mutant expressed in Escherichia coli BL21-Gold (DE3) using fluorogenic AMC-substituted peptide boc-GRR-7-amino-4-methylcoumarin measured every 30 secs for 10 mins by fluorometric assay; parameters: species or system dengue virus type 2
[16] = as §2, with “(DE3) in presence of N-benzylmaleimide” for “(DE3)”; parameters: species or system dengue virus type 2
[17] = as §3, with “(DE3) in presence of N-benzylmaleimide” for “(DE3)”; parameters: species or system dengue virus type 2
Nonstructural protein 3 [18] = molecular target: T1, Nonstructural protein 3; assay: Inhibition of N-terminal hexa-histidine tagged Zika virus NS2B/NS3 protease expressed in Escherichia coli BL21-Gold (DE3) using fluorogenic AMC-substituted peptide boc-GRR-7-amino-4-methylcoumarin measured every 30 secs for 10 mins by fluorometric assay
[19] = as §2, with “(DE3) in presence of N-ethylmaleimide” for “(DE3)”; parameters: species or system dengue virus type 2
Zika virus [20] = assay: Antiviral activity against Zika virus infected in human A549 cells assessed as induction of redistribution of the ZIKV Env protein from ER to cytoplasm at 0.5 uM by confocal scanning microscopy; assay type: functional, organism-based
[21] = (§4) Inhibition of N-terminal hexa-histidine tagged Dengue virus 2 NS2B/NS3 protease I30A/L31A/T122C mutant expressed in Escherichia coli BL21-Gold (DE3) using fluorogenic AMC-substituted peptide boc-GRR-7-amino-4-methylcoumarin measured every 30 secs for 10 mins by fluorometric assay; parameters: species or system dengue virus type 2
[22] = as §4, with “(DE3) in presence of N-benzylmaleimide” for “(DE3)”; parameters: species or system dengue virus type 2

T1 sequence (A0A024AXB9 whole entry): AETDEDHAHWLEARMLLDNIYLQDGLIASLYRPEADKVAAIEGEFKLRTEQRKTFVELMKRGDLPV

With `COc1cc2nc(NC(=O)[C@H]3CCCN3S(=O)(=O)c3ccc(C)cc3)sc2cc1OC` the Drug metabolism [1] was “Metabolite_Detected”, the Drug metabolism [2] was “Metabolite_Detected” and the Activity (Zika virus [3]) was “inactive”. The Activity (Zika virus [4]) was “inactive”, the Drug metabolism [5] was “Metabolite_Detected” and the Activity (dengue virus type 2) was “Active”. The Activity (A549) was “Non-Toxic”, the Activity (Zika virus [6]) was “inactive” and the permeability [7] was 91%. The Drug metabolism [8] was “Metabolite_Detected”.
Compound `O=C(Nc1nc2cc(O)c(O)cc2s1)c1ccccc1Oc1ccc2cc(O)ccc2c1` has an IC50 (Nonstructural protein 3 [9]) of 1.42 µM, an IC50 [10] of 1 µM and an IC50 [11] of 7.06 µM. The Activity (Zika virus [3]) was “inactive”, the IC50 [12] was 4.2 to 4.22 µM and the IC50 [13] was 8.53 µM. For the same compound, the Activity (Zika virus [4]) was “inactive”, the IC50 [14] was 14.1 µM and the IC50 [15] was 1.97 µM. For the same compound, the IC50 [16] was 4.96 µM, the IC50 [17] was 12.6 µM and the Activity (A549) was “Non-Toxic”. For the same compound, the IC50 (Nonstructural protein 3 [18]) was 1.41 µM, the IC50 [19] was 4.11 µM and the Activity (Zika virus [6]) was “inactive”. For the same compound, the Activity (Zika virus [20]) was “inactive”, the IC50 [21] was 2.67 µM and the IC50 [22] was 15.8 µM.

— ChEMBL document CHEMBL4334527, “Proline-Based Allosteric Inhibitors of Zika and Dengue Virus NS2B/NS3 Proteases” (J Med Chem, 2019)
